In general, Dmax refers to the largest share of the target that was removed. A low value points to a partial loss of target. The term DC50 denotes the concentration at which degradation of the target reaches its halfway point. A word on the IC50: it is the concentration needed to halve the response being measured.

What all share (assay type): cell-based
One experiment deals with T1, STAT3 (Homo sapiens, UniProt P40763).
T1 construct: This cell line is a clone created by using CRISPR-Cas9 to fuse HiBiT to the 3′ end of STAT3 in HeLa cells; host or cells: STAT3-HiBiT KI HeLa cell line (CRISPR-Cas9 knock-in clone)
T1 sequence (P40763 whole entry): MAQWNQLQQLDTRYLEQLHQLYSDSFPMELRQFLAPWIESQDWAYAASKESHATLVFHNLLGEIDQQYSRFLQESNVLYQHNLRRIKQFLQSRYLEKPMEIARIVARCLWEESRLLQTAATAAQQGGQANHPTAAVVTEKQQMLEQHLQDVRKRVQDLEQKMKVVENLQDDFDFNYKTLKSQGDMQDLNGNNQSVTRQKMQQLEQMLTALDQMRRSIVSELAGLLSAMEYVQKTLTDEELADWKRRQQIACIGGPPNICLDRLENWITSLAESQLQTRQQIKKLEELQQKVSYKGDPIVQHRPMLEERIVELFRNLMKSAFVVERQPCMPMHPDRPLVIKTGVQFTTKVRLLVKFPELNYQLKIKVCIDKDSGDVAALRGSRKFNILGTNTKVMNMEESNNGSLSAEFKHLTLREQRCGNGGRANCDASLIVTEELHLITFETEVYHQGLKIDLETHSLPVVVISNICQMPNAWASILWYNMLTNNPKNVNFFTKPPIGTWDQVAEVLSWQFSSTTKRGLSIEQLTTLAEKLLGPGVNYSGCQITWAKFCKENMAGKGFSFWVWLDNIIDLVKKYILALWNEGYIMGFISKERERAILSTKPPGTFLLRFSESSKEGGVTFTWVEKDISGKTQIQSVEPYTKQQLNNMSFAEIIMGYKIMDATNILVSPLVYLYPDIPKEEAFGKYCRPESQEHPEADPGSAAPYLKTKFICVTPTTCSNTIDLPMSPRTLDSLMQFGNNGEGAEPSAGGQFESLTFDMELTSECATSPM
Kind of experiment: HiBiT assay, STAT3 degradation in STAT3-HiBiT KI HeLa cells. To be noted: for DC50: read-out: STAT3 Degradation (HeLa 24 h HiBit) DC50. In a few lines: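 Luminescence of endogenous HiBiT-tagged STAT3 (C-terminal knock-in, HeLa) was measured with lytic Nano-Glo detection after 24 h exposure to serially diluted compounds at 37 °C. Cells plated at 20000/well; untreated cells served as control, and triplicate means were fit by four-parameter regression to give IC50.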
For orientation: The HiBiT peptide binds its large partner to form an active luciferase.

Another experiment concerns SU-DHL-1 cells. Description: CellTiter-Glo 2.0 cell viability assay, SU-DHL-1. The settings on record: Homo sapiens, 96 h, 4 days. In a few lines:
(§1)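 IC50 derived by four-parameter nonlinear regression on triplicate luminescence data (CellTiter-Glo 2.0), normalised to untreated controls. Cells plated at 1000/well received serial compound dilutions for 4 days at 37 °C with 5% CO2.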
Background: ATP-based viability assays read luminescence as a measure of living cells.

For another experiment, the system named is SUP-M2 cells. Description: CellTiter-Glo 2.0 cell viability assay, SUP-M2. The settings on record: SUP-M2, 96 h, 4 days. In a few lines:
as §1

Where two headings read alike, the source gives them in different places. Bounds are passed on as bounds.

As to `CCS(=O)(=O)c1ccc(CNC(=O)[C@H](CCC(N)=O)NC(=O)[C@@H]2CC[C@@H]3CCN(C(=O)CCCCc4cn([C@@H](C(=O)N5C[C@H](O)C[C@H]5C(=O)N[C@H](C)c5ccc(-c6scnc6C)cc5)C5CCCCC5)nn4)C[C@H](NC(=O)c4cc5cc(C(=O)P(=O)(O)O)ccc5[nH]4)C(=O)N32)cc1` [Compound 20, (2-(((5S,8S,10aR)-8-(((S)-5-amino-1-((4-(ethylsulfonyl)benzyl)amino)-1,5-dioxopentan-2-yl)carbamoyl)-3-(5-(1-((R)-1-cyclohexyl-2-((2S,4R)-4-hydroxy-2-(((R)-1-(4-(4-methylthiazol-5-yl)phenyl)ethyl)carbamoyl)pyrrolidin-1-yl)-2-oxoethyl)-1H-1,2,3-triazol-4-yl)pentanoyl)-6-oxodecahydropyrrolo[1,2-a][1,5]diazocin-5-yl)carbamoyl)-1H-indole-5-carbonyl)phosphonic acid], on STAT3 (24 h), the Dmax at 1 µM was greater than 80% and the DC50 is less than 10 nM. This compound also displayed an IC50 in the experiment with SU-DHL-1 cells of less than 10 nM. Further, in the experiment on SUP-M2 cells, the IC50 is less than 10 nM.
As to `CC(=O)N1CC[C@H]2CC[C@@H](C(=O)N[C@@H](CCC(N)=O)COc3cccc(CCCc4cn([C@H](C(=O)N5C[C@H](O)C[C@H]5C(=O)N[C@@H](C)c5ccc(-c6scnc6C)cc5)C5CCOCC5)nn4)c3Cl)N2C(=O)[C@@H](NC(=O)c2cc3cc(C(=O)P(=O)(O)O)ccc3[nH]2)C1` [Compound 23, (2-(((5S,8S,10aR)-3-acetyl-8-(((S)-5-amino-1-(2-chloro-3-(3-(1-((S)-2-((2S,4R)-4-hydroxy-2-(((S)-1-(4-(4-methylthiazol-5-yl)phenyl)ethyl)carbamoyl)pyrrolidin-1-yl)-2-oxo-1-(tetrahydro-2H-pyran-4-yl)ethyl)-1H-1,2,3-triazol-4-yl)propyl)phenoxy)-5-oxopentan-2-yl)carbamoyl)-6-oxodecahydropyrrolo[1,2-a][1,5]diazocin-5-yl)carbamoyl)-1H-indole-5-carbonyl)phosphonic acid], at STAT3 (24 h), the maximal degradation (Dmax) at 1 µM was greater than 80% and the DC50 is less than 10 nM. This compound showed an IC50 with SU-DHL-1 cells of less than 10 nM. The IC50 in the experiment on SUP-M2 cells was less than 10 nM.
As to `CCS(=O)(=O)c1ccc(CNC(=O)[C@H](CCC(N)=O)NC(=O)[C@@H]2CC[C@@H]3CCN(C(=O)CCCCc4cn([C@@H](C(=O)N5C[C@H](O)C[C@H]5C(=O)N[C@H](C)c5ccc(-c6scnc6C)cc5)C5CCOCC5)nn4)C[C@H](NC(=O)c4cc5cc(C(=O)P(=O)(O)O)ccc5[nH]4)C(=O)N32)cc1` [Compound 24, (2-(((5S,8S,10aR)-8-(((S)-5-amino-1-((4-(ethylsulfonyl)benzyl)amino)-1,5-dioxopentan-2-yl)carbamoyl)-3-(5-(1-((R)-2-((2S,4R)-4-hydroxy-2-(((R)-1-(4-(4-methylthiazol-5-yl)phenyl)ethyl)carbamoyl)pyrrolidin-1-yl)-2-oxo-1-(tetrahydro-2H-pyran-4-yl)ethyl)-1H-1,2,3-triazol-4-yl)pentanoyl)-6-oxodecahydropyrrolo[1,2-a][1,5]diazocin-5-yl)carbamoyl)-1H-indole-5-carbonyl)phosphonic acid], on STAT3 (24 h), the Dmax at 1 µM is greater than 80%. The DC50 at STAT3 was less than 10 nM. Moreover, the IC50 in the experiment on SU-DHL-1 cells and in the experiment with SUP-M2 cells was less than 10 nM throughout.
With `CC(=O)N1CC[C@H]2CC[C@@H](C(=O)N[C@@H](CCC(N)=O)COc3cccc(CCCc4cn([C@H](C(=O)N5C[C@H](O)C[C@H]5C(=O)N[C@@H](C)c5ccc(-c6scnc6C)cc5)C5CCN(C6CCOCC6)CC5)nn4)c3Cl)N2C(=O)[C@@H](NC(=O)c2cc3cc(C(=O)P(=O)(O)O)ccc3[nH]2)C1` [Compound 25, (2-(((5S,8S,10aR)-3-acetyl-8-(((S)-5-amino-1-(2-chloro-3-(3-(1-((S)-2-((2S,4R)-4-hydroxy-2-(((S)-1-(4-(4-methylthiazol-5-yl)phenyl)ethyl)carbamoyl)pyrrolidin-1-yl)-2-oxo-1-(1-(tetrahydro-2H-pyran-4-yl)piperidin-4-yl)ethyl)-1H-1,2,3-triazol-4-yl)propyl)phenoxy)-5-oxopentan-2-yl)carbamoyl)-6-oxodecahydropyrrolo [1,2-a][1,5]diazocin-5-yl)carbamoyl)-1H-indole-5-carbonyl)phosphonic acid], on STAT3 (24 h), the Dmax at 1 µM lay in the range of 60 to 80% and the DC50 lay in the range of 100 to 1000 nM. In the experiment on SU-DHL-1 cells, this compound yielded an IC50 of 10 to 100 nM. The same compound registered an IC50 with SUP-M2 cells of 10 to 100 nM.
`COCCOCCOCCOCCC(=O)N1CC[C@H]2CC[C@@H](C(=O)N[C@@H](CCC(N)=O)COc3cccc(CCCc4cn([C@H](C(=O)N5C[C@H](O)C[C@H]5C(=O)N[C@@H](C)c5ccc(-c6scnc6C)cc5)C(C)(C)C)nn4)c3Cl)N2C(=O)[C@@H](NC(=O)c2cc3cc(C(=O)P(=O)(O)O)ccc3[nH]2)C1` [Compound 30, (2-(((5S,8S,10aR)-8-(((S)-5-amino-1-(2-chloro-3-(3-(1-((S)-1-((2S,4R)-4-hydroxy-2-(((S)-1-(4-(4-methylthiazol-5-yl)phenyl)ethyl)carbamoyl)pyrrolidin-1-yl)-3,3-dimethyl-1-oxobutan-2-yl)-1H-1,2,3-triazol-4-yl)propyl)phenoxy)-5-oxopentan-2-yl)carbamoyl)-6-oxo-3-(2,5,8,11-tetraoxatetradecan-14-oyl)decahydropyrrolo[1,2-a][1,5]diazocin-5-yl)carbamoyl)-1H-indole-5-carbonyl)phosphonic acid] displayed a Dmax at 1 µM at STAT3 (24 h) greater than 80%. The DC50 on STAT3 (24 h) is less than 10 nM. In addition, the IC50 with SU-DHL-1 cells was less than 10 nM; with SUP-M2 cells, 10 to 100 nM.
With `COCCOCCOCCOCCN1CC[C@H]2CC[C@@H](C(=O)N[C@@H](CCC(N)=O)COc3cccc(CCCc4cn([C@H](C(=O)N5C[C@H](O)C[C@H]5C(=O)N[C@@H](C)c5ccc(-c6scnc6C)cc5)C(C)(C)C)nn4)c3Cl)N2C(=O)[C@@H](NC(=O)c2cc3cc(C(=O)P(=O)(O)O)ccc3[nH]2)C1` [Compound 31, (2-(((5S,8S,10aR)-8-(((S)-5-amino-1-(2-chloro-3-(3-(1-((S)-1-((2S,4R)-4-hydroxy-2-(((S)-1-(4-(4-methylthiazol-5-yl)phenyl)ethyl)carbamoyl)pyrrolidin-1-yl)-3,3-dimethyl-1-oxobutan-2-yl)-1H-1,2,3-triazol-4-yl)propyl)phenoxy)-5-oxopentan-2-yl)carbamoyl)-6-oxo-3-(2,5,8,11-tetraoxatridecan-13-yl)decahydropyrrolo[1,2-a][1,5]diazocin-5-yl)carbamoyl)-1H-indole-5-carbonyl)phosphonic acid], the Dmax at 1 µM at STAT3 (24 h) was greater than 80%. The DC50 on STAT3 (24 h) lay within 10 to 100 nM. The IC50 in the experiment on SU-DHL-1 cells and in the experiment with SUP-M2 cells was 10 to 100 nM in each case.
Regarding `Cc1ncsc1-c1ccc([C@H](C)NC(=O)[C@@H]2C[C@@H](O)CN2C(=O)[C@@H](n2cc(CCCc3cccc(OC[C@H](CCC(N)=O)NC(=O)[C@@H]4CC[C@@H]5CCN(C(=O)C6CCN(C)CC6)C[C@H](NC(=O)c6cc7cc(C(=O)P(=O)(O)O)ccc7[nH]6)C(=O)N54)c3Cl)nn2)C(C)(C)C)cc1` [Compound 32, (2-(((5S,8S,10aR)-8-(((S)-5-amino-1-(2-chloro-3-(3-(1-((S)-1-((2S,4R)-4-hydroxy-2-(((S)-1-(4-(4-methylthiazol-5-yl)phenyl)ethyl)carbamoyl)pyrrolidin-1-yl)-3,3-dimethyl-1-oxobutan-2-yl)-1H-1,2,3-triazol-4-yl)propyl)phenoxy)-5-oxopentan-2-yl)carbamoyl)-3-(1-methylpiperidine-4-carbonyl)-6-oxodecahydropyrrolo[1,2-a][1,5]diazocin-5-yl)carbamoyl)-1H-indole-5-carbonyl)phosphonic acid], on STAT3 (24 h), the Dmax at 1 µM was greater than 80% and the DC50 was 10 to 100 nM. The IC50 with SU-DHL-1 cells lay in the range of 10 to 100 nM. Moreover, the IC50 with SUP-M2 cells lay in the range of 100 to 1000 nM.

Values taken from US20260226086A1, “COMPOUNDS AND COMPOSITIONS AS STAT3 DEGRADERS AND USES THEREOF” (REGENTS OF THE UNIVERSITY OF MICHIGAN, priority 2023, published 2026).
